Values joined by “and” are separate entries in the source; they are usually repeats but may differ in a detail not shown here. Equal entries are not always repeated. “Also recorded” adds a separate entry of the source. Where a SMILES comes first, the peptide text is derived from it. The star is where a group is joined. 5FAM = O=C1OC2(c3ccc(O)cc3Oc3cc(O)ccc32)c2ccc(C(=O)*)cc21
Key:
[1] = tested on: pMCAO model of ischemic stroke; assay: Grip strength after pMCAO; assay type: in vivo, mice; conditions: 48 hours after pMCAO, 3 nmol/g i.v.
Experimental: The grip strength meter (BIO-GT-3, BIOSEB) allows the study of neuromuscular functions in mice by determining the maximum force that is required to make the mouse release its grip. The grip strength in individual paws was used to measure the severity of the pMCAO-induced asymmetry. The mouse is allowed to grasp a metal grid and then pulled backwards in the horizontal plane. The force applied to the grid is recorded as the peak tension. The strength of individual front paws and the total grip strength (both paws simultaneously) were measured before (baseline) and after pMCAO. Each mouse is tested in 5 sequential trials and the highest grip strength is recorded as the best score.

[2] = Physiological status of pMCAO mice (blood values, body weight, temperature, survival); assay type: in vivo; conditions: mouse, in vivo
Experimental: The physiological status of the mice was carefully monitored prior to and during pMCAO surgery in order to exclude the observed effects of treatment with dimeric PSD-95 inhibitors being due to secondary conditions (e.g. disease-related) resulting from the experimental procedure.
9.10 Body weight monitoring: The body weight of each mouse was registered during pre-training, before surgery, and at 24 and 48 hours after surgery and no differences were seen between the treatment groups (FIG. 13).
9.11 Temperature monitoring: The rectal temperature of the mouse was continuously measured using a thermocoupled probe connected to a Model Bat 12 unit (Physitemp). The temperature was measured prior to and 30 min after pMCAO in addition to 30 min and 2.5 hours after i.v. injection, i.e. 1 and 3 hours after pMCAO.
9.12 Blood gas analysis: One samples of venous blood was taken for blood gas analysis of PO2/PCO2 electrolytes, glucose, lactate, and hematocrit, 30 min after compound administration (1 hour after pMCAO). A capillary heparin coated tube was inserted along the inner corner of eye and turned until it penetrated the conjunctiva. A sample of blood (150 μl) was collected and stored on ice until gas analysis using the GEM Premier 300 blood gas instrument (Instrumentation Laboratory) Quality controls (QC ContrlIL9) were purchased from IL Sensor Systems. Also, no differences were detected in blood gas parameters (PO2/PCO2, pH, electrolytes, glu/lac), which were similar between the groups and within normal range, when compared to unmanipulated control mice (Table 4).

[3] = Human blood plasma stability assay; assay type: in vitro ADME
Experimental: Ligands (dimeric PSD-95 inhibitors) for the PDZ domain of PSD-95 were dissolved in human blood plasma (270 μL; 3H Biomedical, Sweden, cat no 1300-1-P50) to a concentration of 0.25 mM (30 μL, of 2.5 mM) and incubated at 37° C. Aliquots (30 μL) were removed at various time intervals (e.g. 0, 5, 10, 20, 40, 80, 160, 320, 960, 1280, 2550, 4560 and 7240 min) and quenched with 60 μL, trichloroacetic acid (aq., 5%). The aliquots were vortexed, and incubated 15 min, at 4° C. prior to centrifugation at 18,000 g for 2 min. The supernatants were analyzed by analytical RP-HPLC (UV218) to quantify compound relative to time zero, and also evaluated qualitatively by ESI-LC/MS in order to identify the compound (m/z) in the sample. Procaine (positive control) and procainamide (negative control) were investigated at 50 μM to validate the procedure. Ligand recoveries following the precipitation procedure were between 85-95%.

[4] = tested on: pMCAO model of ischemic stroke; assay: Rotarod performance test after pMCAO; assay type: in vivo, mice; conditions: 48 hours after pMCAO
Experimental: The rotarod (LE 8200, Panlab) is well suited to evaluate motor activity in rodents, experimental compound effects on central nervous system damage, or disease effects on motor coordination, assessed by the time during which the animal remains walking in a rotating drum. The rotation of the rotarod is motor drived and accelerates from 0 to 40 rounds per min (rpm) over a time period of 5 min, at which time all mice have fallen off the rod. All mice were tested in 4 repeating trials with a 20 min interval (resting time). Prior to surgery mice were pre-trained to stay on the rod for 30 seconds, at 4 rpm.

[5] = Spinal cord detection of fluorescent PSD-95 inhibitors; assay type: in vivo, mice; conditions: 30 mg/kg i.p., 30 min after injection
Experimental: To investigate if AB143 and AB145 are able to enter spinal cord tissue, they were administered to the mice by intraperitoneal injection (30 mg/kg). The drug-treated mice were decapitated 30 min after injection, and the spinal cord was carefully dissected out, to which 5% trichloroacetic acid (TCA) (300 μL per 0.1 g tissue) was added and the tissue homogenized with an ultrasonic homogenizer (on ice). The homogenated tissue was vortexed and centrifuged for 10 min (20000 g at 4° C.). The supernatant was transferred to a test tube and evaporated, and the residue was reconstituted in water and its fluoresence intensity was determined by using a fluorescence plate reader (excitation/emission:470/525 nm). For quantification of the compounds, a standard curve was prepared by spiking a known amount of AB143 and AB145 into spinal cord tissue from control mice prior to homogenization, followed by work-up and analysis similar to the drug-treated mice.

[6] = Blood-brain barrier permeability of fluorescent analogues; assay type: in vivo, mice; conditions: 5-FAM-labeled, 3 nmol/g i.v., 2 hours after injection, unmanipulated mice
Experimental: VI.ii. Blood-brain Barrier Permeability. […] After injection of the compounds, the mice are perfused with paraformaldehyde and the brains are carefully removed, post-fixed in paraformaldehyde, processed into coronal sections, and quantified for fluorescence (Example 8).
The fluorescent ligands were injected intravenously (3 nmol/g) and the location of the ligands was detected by fluorescence microscopy of coronal brain slices (n=8) mice, was evaluated 2 hours after injection. Two sections of the brain, prior to and two after the anterior commissure (n=5), were selected for BBB permeability analysis. The anterior commissure (Bregma: −0.3) was used as a fix point in the brain in order to analyse anatomically identical brain sections. The intensity of the 5-FAM fluorophore was measured semi-quantitatively using a fluorescence microscopy system (Olympus System Microscope model BX-51, Denmark) with a 10× objective (Olympus 10×/0.15 UPlanApo) connected to a high-resolution microscope digital camera (Olympus model DP70), which transferred images to an image-capturing software (Image Pro Plus software). All images were taken using the same microscope settings and with constant camera exposure time. Intensities were quantified using the ImageJ software.
5-FAM-labeled derivative of Tat-NR2B9c is designated MS23. After injection of the compounds, the mice are perfused with paraformaldehyde and the brains are carefully removed, post-fixed in paraformaldehyde, processed into coronal sections, and quantified for fluorescence.
C57BL/6 mice with 6 hour post-surgical survival time were euthanized by cervical dislocation. C57BL/6 mice with 48 hour post-surgical survival were anesthetized with an overdosed of pentobarbital (the pharmacy of the Faculty of Life Sciences, University of Copenhagen, Denmark) in order to collect blood and tissue samples. All brains were carefully removed, frozen in gaseous CO2 and cut into 6 series of 30 μm coronal cryostat sections and stored at −80° C. until further use. C57BL/6J mice used to investigate the blood-brain barrier (BBB) permeability of AB143, AB145, AB148, and MS23 were deeply anesthetized and perfused through the left ventricle, using 10 ml chilled Soerensens phosphate buffer (SB) ([…], 125 mM Na2HPO4, pH 7.4) followed by 20 mL SB containing 4% paraformaldehyde (PFA). The brains were carefully removed and post-fixed in 4% PFA for 1 hour followed by immersion in SB containing 20% sucrose over night. The brains were frozen on gaseous CO2 and processed into 16 μm coronal cryostat sections.

CC[C@H](C)[C@H](NC(=O)CCOCCOCCN(CCOCCOCCC(=O)N[C@H](C(=O)N[C@@H](CCC(=O)O)C(=O)N[C@H](C(=O)N[C@@H](CC(=O)O)C(=O)N[C@H](C(=O)O)C(C)C)[C@@H](C)O)[C@@H](C)CC)C(=O)[C@@H](CCCNC(=N)N)NC(=O)[C@@H](CCCCN)NC(=O)[C@@H](CCCCN)NC(=O)[C@@H](CCCNC(=N)N)NC(=O)[C@@H](CCCNC(=N)N)NC(=O)[C@@H](CCC(N)=O)NC(=O)[C@@H](CCCNC(=N)N)NC(=O)[C@@H](CCCNC(=N)N)NC(=O)[C@H](N)CCCNC(=N)N)C(=O)N[C@@H](CCC(=O)O)C(=O)N[C@H](C(=O)N[C@@H](CC(=O)O)C(=O)N[C@H](C(=O)O)C(C)C)[C@@H](C)O [AB147, Retroinverso-D-Tat-NPEG4(IETDV)2]
grip strength asymmetry between right and left front paw [1]: no asymmetry and not
total grip strength (both paws) compared to baseline [1]: no significant change in total grip strength; also recorded: No difference compared to baseline
Hct [2]: 41.3 ± 0.6%
[Ca2+] [2]: 1.31 ± 0.01 mmol/L
[K+] [2]: 5.1 ± 0.18 mmol/L
[Lactate] [2]: 0.90 ± 0.05 mmol/L
[Na+] [2]: 147 ± 0.5 mmol/L
pCO2 [2]: 104 ± 2.5 mmHg
pO2 [2]: 56.4 ± 2.9 mmHg
degradation in human blood plasma [3]: No detectable degradation
total time spent on the rod ([4]; 3 nmol/g i.v., four trials): 92.6 ± 4.5 s
short term learning skill improvement on rotarod compared to saline ([4]; trials T1-T4): more pronounced short term learning skill improvement

CC[C@H](C)[C@H](N)C(=O)N[C@@H](CCC(=O)O)C(=O)N[C@H](C(=O)N[C@@H](CC(=O)O)C(=O)N[C@H](C(=O)O)C(C)C)[C@@H](C)O [IETDV, reference compound]
half-life at 0.25 mM ([3]; human, human blood plasma, 0.25 mM, 37° C., in vitro, read-out: half-life (T1/2) in human blood plasma): 37 ± 6 min

CC[C@H](C)[C@H](NC(=O)CCOCCOCCN(CCOCCOCCC(=O)N[C@H](C(=O)N[C@@H](CCC(=O)O)C(=O)N[C@H](C(=O)N[C@@H](CC(=O)O)C(=O)N[C@H](C(=O)O)C(C)C)[C@@H](C)O)[C@@H](C)CC)C(=O)[C@H](CCCNC(=N)N)NC(=O)[C@H](CCCNC(=N)N)NC(=O)[C@H](CCCNC(=N)N)NC(=O)[C@H](CCC(N)=O)NC(=O)[C@H](CCCNC(=N)N)NC(=O)[C@H](CCCNC(=N)N)NC(=O)[C@H](CCCCN)NC(=O)[C@H](CCCCN)NC(=O)[C@H](CCCNC(=N)N)NC(=O)CNC(=O)[C@H](Cc1ccc(O)cc1)NC(=O)c1ccc2c(c1)C(=O)OC21c2ccc(O)cc2Oc2cc(O)ccc21)C(=O)N[C@@H](CCC(=O)O)C(=O)N[C@H](C(=O)N[C@@H](CC(=O)O)C(=O)N[C@H](C(=O)O)C(C)C)[C@@H](C)O [AB145, F-Tat-NPEG4(IETDV)2]
fluorescence in spinal cord tissue compared to saline-treated mice [5]: clear and distinct fluorescence increase
concentration in spinal cord, Average ± SEM ([5]; mice): 0.074 nmol/g and 0.074 ± 0.022 nmol/g
concentration in spinal cord, individual samples ([5]; mice): 0.035 nmol/g and 0.132 nmol/g and 0.108 nmol/g and 0.084 nmol/g and 0.012 nmol/g
entry into brain, fluorescence microscopy of coronal brain slices [6]: enter the brain; also recorded: Detection

CC[C@H](C)[C@H](NC(=O)[C@H](CO)NC(=O)[C@H](CO)NC(=O)[C@H](CC(C)C)NC(=O)[C@H](CCCCN)NC(=O)[C@H](CCCNC(=N)N)NC(=O)[C@H](CCCNC(=N)N)NC(=O)[C@H](CCCNC(=N)N)NC(=O)[C@H](CCC(N)=O)NC(=O)[C@H](CCCNC(=N)N)NC(=O)[C@H](CCCNC(=N)N)NC(=O)[C@H](CCCCN)NC(=O)[C@H](CCCCN)NC(=O)[C@H](CCCNC(=N)N)NC(=O)CNC(=O)[C@H](Cc1ccc(O)cc1)NC(=O)c1ccc2c(c1)C(=O)OC21c2ccc(O)cc2Oc2cc(O)ccc21)C(=O)N[C@@H](CCC(=O)O)C(=O)N[C@@H](CO)C(=O)N[C@@H](CC(=O)O)C(=O)N[C@H](C(=O)O)C(C)C [MS23, F-Tat-NR2B9c, reference compound] (5FAM-YGRKKRRQRRRKLSSIESDV-OH)
entry into brain, fluorescence microscopy of coronal brain slices [6]: Detection

Source: patent US9139615B2, “High-affinity, dimeric inhibitors of PSD-95 as efficient neuroprotectants against ischemic brain damage and for treatment of pain” (University of Copenhagen, priority 2011, dated 2015)
